According to patent US8802597B2, “Herbicidal pyrimidines” (E I du Pont de Nemours and Company, priority 2003, dated 2014):

Legend:
Test in all cases: Test A pre/postemergence
Format in all cases: in vivo
[1] = tested on: barnyardgrass (Echinochloa crus-galli)
In short: (§1)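 After planting in loam and sand, species received test chemical as preemergence soil spray; postemergence spray went on 2–10 cm plants at 1–2 leaves at the same time. Evaluation: visual injury, ~10 d, 0 no effect to 100 complete control.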

[2] = tested on: crabgrass (Digitaria sanguinalis)
In short: as §1

[3] = tested on: giant foxtail (Setaria faberi)
In short: as §1

[4] = tested on: morningglory (Ipomoea spp.)
In short: as §1

[5] = tested on: redroot pigweed (Amaranthus retroflexus)
In short: as §1

[6] = tested on: velvetleaf (Abutilon theophrasti)
In short: as §1

[7] = Postemergence, 125 g ai/ha, 0 to 100 scale (0 no effect, 100 complete control)
[8] = Postemergence, 500 g ai/ha, 0 to 100 scale (0 no effect, 100 complete control)
[9] = Preemergence, 125 g ai/ha, 0 to 100 scale where 0 is no effect and 100 is complete control, approximately ten days
[10] = Preemergence, 500 g ai/ha, 0 to 100 scale where 0 is no effect and 100 is complete control, approximately ten days

| Structure (SMILES) | Plant response rating, Barnyardgrass [1, 7] | Plant response rating, Barnyardgrass [1, 8] | Plant response rating, Barnyardgrass [1, 9] | Plant response rating, Barnyardgrass [1, 10] | Plant response rating, Crabgrass [2, 7] | Plant response rating, Crabgrass [2, 8] | Plant response rating, Crabgrass [2, 9] | Plant response rating, Crabgrass [2, 10] | Plant response rating, Foxtail, Giant [3, 7] | Plant response rating, Foxtail, Giant [3, 8] | Plant response rating, Foxtail, Giant [3, 9] | Plant response rating, Foxtail, Giant [3, 10] | Plant response rating, Morningglory [4, 7] | Plant response rating, Morningglory [4, 8] | Plant response rating, Morningglory [4, 9] | Plant response rating, Morningglory [4, 10] | Plant response rating, Pigweed [5, 7] | Plant response rating, Pigweed [5, 8] | Plant response rating, Pigweed [5, 9] | Plant response rating, Pigweed [5, 10] | also measured |
| --- | --- | --- | --- | --- | --- | --- | --- | --- | --- | --- | --- | --- | --- | --- | --- | --- | --- | --- | --- | --- | --- |
| CCOC(=O)c1nc(-c2cccc(Cl)c2)nc(N)c1Cl [Compound 100] | 0 | 10 | 5 | 0 | 0 | 0 | 10 | 0 | 0 | 0 | 0 | 0 | 40 | 55 | 0 | 0 | 10 | 25 | 20 | 0 | Plant response rating, Velvetleaf [6, 7]: 50; Plant response rating, Velvetleaf [6, 8]: 70; Plant response rating, Velvetleaf [6, 9]: 0; Plant response rating, Velvetleaf [6, 10]: 0 |
| Nc1nc(C2CC2)nc(C(=O)OCC2CCCO2)c1Cl (stereo not drawn) [Compound 150] | 80 | 95 | 65 | 80 | 65 | 80 | 50 | 80 | 80 | 85 | 50 | 80 | 80 | 100 | 90 | 100 | 90 | 90 | 70 | 95 | Plant response rating, Velvetleaf [6, 7]: 90; Plant response rating, Velvetleaf [6, 8]: 100; Plant response rating, Velvetleaf [6, 9]: 75; Plant response rating, Velvetleaf [6, 10]: 95 |
| CCOC(=O)COc1nc(-c2ccc(Cl)cc2)nc(N)c1Cl [Compound 114] | 0 | 0 | 0 | 0 | 0 | 0 | 0 | 0 | 0 | 0 | 0 | 0 | 40 | 55 | 0 | 0 | 45 | 55 | 0 | 0 | Plant response rating, Velvetleaf [6, 7]: 0; Plant response rating, Velvetleaf [6, 8]: 5; Plant response rating, Velvetleaf [6, 9]: 0; Plant response rating, Velvetleaf [6, 10]: 0 |
| CCOC(=O)c1nc(-c2ccc(Cl)cc2)nc(N)c1I [Compound 137] | 0 | 0 | 0 | 0 | 0 | 0 | 0 | 0 | 0 | 0 | 0 | 0 | 5 | 30 | 0 | 0 | 25 | 45 | 0 | 0 | Plant response rating, Velvetleaf [6, 7]: 45; Plant response rating, Velvetleaf [6, 8]: 60; Plant response rating, Velvetleaf [6, 9]: 0; Plant response rating, Velvetleaf [6, 10]: 0 |
